This note sets out measurements from patent publication US10766869B2, “Triazoles for the treatment of demyelinating dieases” (Vertex Pharmaceuticals Incorporated, priority 2015, dated 2020).

In this test the test system is primary rat mixed cortical cells. Briefly: In vitro myelination assay (MBP positive myelin strands, fold myelin pixels above background). Conditions: Rattus norvegicus; for fold induction at 1 µM: 1.0 μM compound; for fold induction at 10 µM: 10.0 μM compound. The format is cell-based. The procedure, abridged:
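P1 rat mixed cortical cultures (neurons, OPCs, oligodendrocytes, astrocytes, microglia) grown 14 days at 37 °C with compound, half-medium refreshed with compound on days 6 and 10. Fixed cells stained for MBP; MBP-positive myelin strand pixels per well quantified by automated imaging, reported as fold over no-compound baseline at 1.0 and 10.0 μM.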

[1] abbreviates: read-out: Fold myelin pixels above background relative to baseline of no added compound.
Where [2] appears, read: relative to baseline of no added compound, read-out: Fold myelin pixels above background.
The mark [3] stands for this setting: relative to baseline of no added compound, read-out: Fold myelin pixels above background, 1.0 μM.
Where [4] appears, read: relative to baseline of no added compound, read-out: Fold myelin pixels above background, 10.0 μM.

Molecules are shown by their SMILES. Where two headings read alike, the source gives them in different places. Some results are limits rather than exact numbers.

With `CC(=O)OCC(COC(C)=O)N1CCN(c2cc(C)cc(Nc3ncn(-c4cc(F)cc(F)c4)n3)c2F)CC1` [Compound 923, [3-acetoxy-2-[4-[3-[[1-(3,5-difluorophenyl)-1,2,4-triazol-3-yl]amino]-2-fluoro-5-methyl-phenyl]piperazin-1-yl]propyl] acetate], under setting [1], the fold induction at 1 µM is 10 to 100 and the fold induction at 10 µM fell in the range of 1 to 10.
Take `Cc1cc(Nc2ncn(-c3ccccc3)n2)cc(Nc2nccs2)c1` [Compound 643, 5-methyl-N3-(1-phenyl-1,2,4-triazol-3-yl)-N1-thiazol-2-yl-benzene-1,3-diamine]: under setting [2], the fold induction at 1 µM is 10 to 100 and the fold induction at 10 µM is not above 1.
For `Cc1cc(Nc2ncn(-c3cc(F)cc(F)c3)n2)cc(N2CCC(N3CCOC(C)C3)CC2)c1` (stereo not drawn) [Compound 1023, 1-(3,5-difluorophenyl)-N-[3-methyl-5-[4-(2-methylmorpholin-4-yl)-1-piperidyl]phenyl]-1,2,4-triazol-3-amine], under setting [1], the fold induction at 1 µM was 1 to 10 and the fold induction at 10 µM lay within 10 to 100.
With `Cc1cc(Nc2ncn(-c3cc(F)cc(F)c3)n2)cc(N2CCC(F)CC2)n1` [Compound 457, N-[1-(3,5-difluorophenyl)-1,2,4-triazol-3-yl]-2-(4-fluoro-1-piperidyl)-6-methyl-pyridin-4-amine], under setting [2], the fold induction at 1 µM fell in the range of 1000 to 10000 and the fold induction at 10 µM fell in the range of 1000 to 10000.
On to `Cc1cc(Nc2ncn(-c3cc(F)cc(F)c3)n2)cc(NC2CCOC(C3CC3)C2)c1` (stereo not drawn) [Compound 918, N1-(2-cyclopropyltetrahydropyran-4-yl)-N3-[1-(3,5-difluorophenyl)-1,2,4-triazol-3-yl]-5-methyl-benzene-1,3-diamine], for which, under setting [1], the fold induction at 1 µM was in the range of 1 to 10 and the fold induction at 10 µM is not above 1.
Turning to `Cc1cc(Nc2ncn(-c3cc(F)cc(F)c3)n2)cc(N2CC(N3CCOC4CC43)C2)c1` (stereo not drawn) [Compound 652, 1-(3,5-difluorophenyl)-N-[3-methyl-5-[3-(5-oxa-2-azabicyclo[4.1.0]heptan-2-yl)azetidin-1-yl]phenyl]-1,2,4-triazol-3-amine], under setting [2], the fold induction at 1 µM was in the range of 10 to 100 and the fold induction at 10 µM is not above 1.
`Cc1cc(Nc2ncn(-c3cc(F)cc(F)c3)n2)cc(NC2CCOCC2N2CCCC2)c1` (stereo not drawn) [Compound 884, N3-[1-(3,5-difluorophenyl)-1,2,4-triazol-3-yl]-5-methyl-N1-(3-pyrrolidin-1-yltetrahydropyran-4-yl)benzene-1,3-diamine]: under setting [1], the fold induction at 1 µM was 1 to 10 and the fold induction at 10 µM was not above 1.
For `Fc1cccc(-n2cnc(Nc3cc(N4CCN(C5COC5)CC4)cc(C(F)(F)F)c3)n2)c1` [Compound 175, 1-(3-fluorophenyl)-N-[3-[4-(oxetan-3-yl)piperazin-1-yl]-5-(trifluoromethyl)phenyl]-1,2,4-triazol-3-amine], the fold induction at 1 µM under setting [3] was 1000 to 10000. Further, under setting [4], the fold induction at 10 µM was not above 1.
As to `COCC(=O)N1CC(C)(Nc2cc(C)cc(Nc3ncn(-c4cc(F)cc(F)c4)n3)c2)C1` [Compound 1075, 1-[3-[3-[[1-(3,5-difluorophenyl)-1,2,4-triazol-3-yl]amino]-5-methyl-anilino]-3-methyl-azetidin-1-yl]-2-methoxy-ethanone], under setting [1], the fold induction at 1 µM was 1 to 10 and the fold induction at 10 µM is not above 1.
With `Cc1cc(Nc2ncn(-c3cc(F)nc(F)c3)n2)cc(N2CCN(C3COC3)CC2)c1` [Compound 232, 1-(2,6-difluoro-4-pyridyl)-N-[3-methyl-5-[4-(oxetan-3-yl)piperazin-1-yl]phenyl]-1,2,4-triazol-3-amine], the fold induction at 1 µM under setting [3] lay within 10 to 100. Also, the fold induction at 10 µM under setting [4] is 10 to 100.
Consider `Cc1cc(Nc2ncn(-c3cc(F)cc(F)c3)n2)cc(N2CCC(CCCO)CC2)c1` [Compound 877, 3-[1-[3-[[1-(3,5-difluorophenyl)-1,2,4-triazol-3-yl]amino]-5-methyl-phenyl]-4-piperidyl]propan-1-ol], for which, under setting [1], the fold induction at 1 µM lay within 1 to 10 and the fold induction at 10 µM is 1 to 10.
For `Cc1cc(Nc2ncn(-c3cccc(C(F)(F)F)c3)n2)cc(N2CCCC2)c1` [Compound 190, N-(3-methyl-5-pyrrolidin-1-yl-phenyl)-1-[3-(trifluoromethyl)phenyl]-1,2,4-triazol-3-amine], the fold induction at 1 µM under setting [3] was in the range of 1 to 10. Moreover, under setting [4], the fold induction at 10 µM was not above 1.
Regarding `CCc1cc(Nc2ncn(-c3ccc(F)c(F)c3)n2)cc(N2CCN(C3COC3)CC2)c1` [Compound 69, 1-(3,4-difluorophenyl)-N-[3-ethyl-5-[4-(oxetan-3-yl)piperazin-1-yl]phenyl]-1,2,4-triazol-3-amine], under setting [3], the fold induction at 1 µM fell in the range of 1000 to 10000. The fold induction at 10 µM under setting [4] was in the range of 10 to 100.
Consider `Cc1cc(Nc2ncn(-c3ccccc3)n2)cc(N2CCN(CC(C)(C)O)CC2)c1` [Compound 461, 2-methyl-1-[4-[3-methyl-5-[(1-phenyl-1,2,4-triazol-3-yl)amino]phenyl]piperazin-1-yl]propan-2-ol], for which, under setting [2], the fold induction at 1 µM was 1000 to 10000 and the fold induction at 10 µM was not above 1.
On the same counts, the results for `Cc1cc(Nc2ncn(-c3cc(F)cc(F)c3)n2)nc(N2CC(C(C)(C)O)C2)c1` [Compound 572, 2-[1-[6-[[1-(3,5-difluorophenyl)-1,2,4-triazol-3-yl]amino]-4-methyl-2-pyridyl]azetidin-3-yl]propan-2-ol] are not above 1 and 1 to 10.
On to `Cc1cc(Nc2ncn(-c3ccc(F)c(F)c3)n2)cc(OCCn2cccn2)c1` [Compound 698, 1-(3,4-difluorophenyl)-N-[3-methyl-5-(2-pyrazol-1-ylethoxy)phenyl]-1,2,4-triazol-3-amine], for which, under setting [2], the fold induction at 1 µM lay within 10 to 100 and the fold induction at 10 µM lay within 10 to 100.
`Cc1cc(Nc2ncn(-c3cccc(C(F)F)c3)n2)cc(N2CCN(C3COC3)CC2)c1` [Compound 833, 1-[3-(difluoromethyl)phenyl]-N-[3-methyl-5-[4-(oxetan-3-yl)piperazin-1-yl]phenyl]-1,2,4-triazol-3-amine]: under setting [1], the fold induction at 1 µM is 1 to 10 and the fold induction at 10 µM is not above 1.
Turning to `CSc1nccc(-n2cnc(Nc3cc(C)cc(N4CCN(C5COC5)CC4)c3)n2)n1` [Compound 64, N-[3-methyl-5-[4-(oxetan-3-yl)piperazin-1-yl]phenyl]-1-(2-methylsulfanylpyrimidin-4-yl)-1,2,4-triazol-3-amine], under setting [3], the fold induction at 1 µM lay within 10 to 100. Also, the fold induction at 10 µM under setting [4] is not above 1.
For the molecule `COCC1CN(c2cc(C)cc(Nc3ncn(-c4cc(F)cc(F)c4)n3)c2)C1` [Compound 116, 1-(3,5-difluorophenyl)-N-[3-[3-(methoxymethyl)azetidin-1-yl]-5-methyl-phenyl]-1,2,4-triazol-3-amine], the fold induction at 1 µM under setting [3] is not above 1. In addition, the fold induction at 10 µM under setting [4] is not above 1.
For `Fc1cc(F)cc(-n2cnc(Nc3cc(C(F)F)cc(N4CC(N5CCOCC5)C4)n3)n2)c1` [Compound 732, 4-(difluoromethyl)-N-[1-(3,5-difluorophenyl)-1,2,4-triazol-3-yl]-6-(3-morpholinoazetidin-1-yl)pyridin-2-amine], under setting [2], the fold induction at 1 µM is 1 to 10 and the fold induction at 10 µM was in the range of 1 to 10.
For `Cc1cc(Nc2ncn(-c3ccccc3)n2)cc(C2CCN(C)CC2)c1` [Compound 333, N-[3-methyl-5-(1-methyl-4-piperidyl)phenyl]-1-phenyl-1,2,4-triazol-3-amine], the fold induction at 1 µM under setting [3] lay within 1000 to 10000. Moreover, the fold induction at 10 µM under setting [4] is not above 1.
`Fc1cc(F)cc(-n2cnc(Nc3cc(N4CCN(C5COC5)CC4)cc(C(F)(F)F)n3)n2)c1` [Compound 567, N-[1-(3,5-difluorophenyl)-1,2,4-triazol-3-yl]-4-[4-(oxetan-3-yl)piperazin-1-yl]-6-(trifluoromethyl)pyridin-2-amine]: under setting [2], the fold induction at 1 µM is not above 1 and the fold induction at 10 µM is not above 1.
`Cc1cc(Nc2ncn(-c3cc(F)cc(F)c3)n2)cc(NC2CCN(C3CCOCC3)CC2)c1` [Compound 1013, N3-[1-(3,5-difluorophenyl)-1,2,4-triazol-3-yl]-5-methyl-N1-(1-tetrahydropyran-4-yl-4-piperidyl)benzene-1,3-diamine]: under setting [1], the fold induction at 1 µM was in the range of 10 to 100 and the fold induction at 10 µM is not above 1.
For the molecule `Cc1cc(Nc2ncn(-c3ccc(F)cc3)n2)cc(N2CCN(C3(C)COC3)CC2)c1` [Compound 695, 1-(4-fluorophenyl)-N-[3-methyl-5-[4-(3-methyloxetan-3-yl)piperazin-1-yl]phenyl]-1,2,4-triazol-3-amine], under setting [2], the fold induction at 1 µM was in the range of 1 to 10 and the fold induction at 10 µM was 1 to 10.
As to `Cc1cc(Nc2ncn(-c3cc(F)cc(F)c3)n2)cc(C2(O)CCN(C3COC3)C2)c1` (stereo not drawn) [Compound 416, 3-[3-[[1-(3,5-difluorophenyl)-1,2,4-triazol-3-yl]amino]-5-methyl-phenyl]-1-(oxetan-3-yl)pyrrolidin-3-ol], under setting [2], the fold induction at 1 µM lay within 100 to 1000 and the fold induction at 10 µM was 10 to 100.
On to `CN1CCN(c2cc(Nc3ncn(-c4ccncc4)n3)cc(C(F)(F)F)c2)CC1` [Compound 13, N-[3-(4-methylpiperazin-1-yl)-5-(trifluoromethyl)phenyl]-1-(4-pyridyl)-1,2,4-triazol-3-amine], for which the fold induction at 1 µM under setting [3] lay in the range of 100 to 1000. For the same molecule, under setting [4], the fold induction at 10 µM is not above 1.
Turning to `Cc1cc(Nc2ncn(-c3ccc(F)c(F)c3)n2)nc(N2CC(N3CCOCC3)C2)c1` [Compound 501, N-[1-(3,4-difluorophenyl)-1,2,4-triazol-3-yl]-4-methyl-6-(3-morpholinoazetidin-1-yl)pyridin-2-amine], under setting [2], the fold induction at 1 µM is 1 to 10 and the fold induction at 10 µM is not above 1.
